Values of other authors as cited in patent US9771618B2, “Methods for treating breast cancer” (Bioarray Genetics, Inc., priority 2009, dated 2017).

System: locally advanced breast cancer
Conditions: 24 tumors of the Chang, et al. dataset (10 of 24); response assessed after neoadjuvant chemotherapy

For `CC(=O)O[C@H]1C(=O)[C@@]2(C)[C@H]([C@H](OC(=O)c3ccccc3)[C@]3(O)C[C@H](OC(=O)[C@H](O)[C@@H](NC(=O)c4ccccc4)c4ccccc4)C(C)=C1C3(C)C)[C@]1(OC(C)=O)CO[C@@H]1C[C@@H]2O` [taxol, paclitaxel], the “overall taxol sensitive rate” value is listed as 41.7%.
